Assay results taken from article PMC7469689, “Substituted 4,5′-Bithiazoles as Catalytic Inhibitors of Human DNA Topoisomerase IIα” (Journal of Chemical Information and Modeling, 2020).
One block for each compound: values may come before it.

Columns and labels:
[1] = parameters: method as in doi:10.1039/jr9480002240; settings: first protonation on the ring nitrogen; cited from earlier work
[2] = biological target: T1, human topo IIα (Homo sapiens, UniProt P11388); test: HTS relaxation assay of human topo IIα; format: biochemical
T1 construct: purchased Inspiralis (Norwich, U.K.)

[3] = Solubility observations; format: physicochemical; settings: cell growth medium
[4] = biological target: bacterial DNA gyrase; parameters: method as in earlier work; settings: previous virtual screening campaign; cited from earlier work
[5] = system: HepG2 cells; test: MTS cytotoxicity assay, HepG2; format: cell-based, human; settings: 24 h, one concentration (200, 100 or 50 μM by solubility), vs untreated control
From the text: (§1) We have determined the cytotoxicity of the compounds using the human breast cancer MCF-7 and human hepatocellular carcinoma HepG2 cancer cell lines by standard 3-(4,5-dimethylthiazol-2-yl)-5-(3-carboxymethoxyphenyl)-2-(4-sulfophenyl)-2H-tetrazolium (MTS) assay.[65] The two selected human cancer cell lines are representative and well-established systems for the cell-based evaluation of potential cancer drugs. Etoposide was again used as a positive control (PC). We performed initial screening of compounds 1–14 at one concentration.
(§2) Cytotoxic activity of studied compounds was determined in two human cancer cell lines: hepatocellular carcinoma (HepG2) and breast cancer (MCF-7) cells. Both cell lines were obtained from ATCC. […] After the exposure of cells to the tested compounds, their viability was determined using the MTS assay.
(§3) The cells were seeded at densities of 8000 and 7000 cells/well for HepG2 and MCF-7 cells, respectively, in 200 μL of complete growth medium onto 96-well microtiter plates (Nunc, Thermo Fisher Scientific, Waltham, MA) and were left overnight at 37 °C to attach. […] After 3 h incubation (37 °C, 5% CO2), the absorbance was determined at 490 nm using a spectrofluorometer Synergy MX (BioTek, Winooski, VT). […] Cell viability was calculated by comparing the optical density (OD) of the wells with exposed cells with the wells of solvent control cells, and the results are shown as percentage of cell viability ± SD. […] The EC50 values were determined utilizing nonlinear regression analysis available in GraphPad Prism 7.0 software. Statistically significant difference between control and treated groups was determined by one-way analysis of variance combined with Dunnett’s multiple comparison test.

[6] = system: MCF-7 cells; test: MTS cytotoxicity assay, MCF-7; format: cell-based, human; settings: 24 h, one concentration (200, 100 or 50 μM by solubility), vs untreated control
From the text: as §1, §2, §3

[7] = biological target: T1, human topo IIα; test: Human topo IIα-mediated cleavage assay; format: biochemical; settings: for linear DNA formation in cleavage assay (in words): four concentrations
From the text: To determine whether compounds act as catalytic inhibitors, a cleavage assay was next performed for compounds 1 and 9.
We performed the assay in collaboration with Inspiralis (Norwich, U.K.).

[8] = biological target: T1, human topo IIα; test: Human topo IIα-mediated kDNA decatenation assay; format: biochemical
Method: (§4) We made use of the human topo II decatenation assay kit from Inspiralis (Norwich, U.K.) to assess the ability of selected compounds to impede DNA decatenation.[89],[90] It was performed for topo IIα and topo IIβ isoforms using the protocol as described previously.[35]

[9] = biological target: T1, human topo IIα; test: ATPase activity (ATP hydrolysis) assay, pyruvate kinase/lactate dehydrogenase coupled; format: biochemical
[10] = biological target: T2, human topo IIβ (Homo sapiens, UniProt Q02880); test: Human topo IIβ-mediated kDNA decatenation assay; format: biochemical
T2 construct: purchased Inspiralis (Norwich, U.K.)
Method: We were also interested in whether compounds can act on both isoforms of the human topo II. Thus, we performed human topo IIβ decatenation assays for compounds 1 and 9. […] (see also Tables S5 and S6 for more details).
as §4

[11] = 500 μM (compound 1: solubility problems, erratic readings)

T1 sequence (P11388 whole entry): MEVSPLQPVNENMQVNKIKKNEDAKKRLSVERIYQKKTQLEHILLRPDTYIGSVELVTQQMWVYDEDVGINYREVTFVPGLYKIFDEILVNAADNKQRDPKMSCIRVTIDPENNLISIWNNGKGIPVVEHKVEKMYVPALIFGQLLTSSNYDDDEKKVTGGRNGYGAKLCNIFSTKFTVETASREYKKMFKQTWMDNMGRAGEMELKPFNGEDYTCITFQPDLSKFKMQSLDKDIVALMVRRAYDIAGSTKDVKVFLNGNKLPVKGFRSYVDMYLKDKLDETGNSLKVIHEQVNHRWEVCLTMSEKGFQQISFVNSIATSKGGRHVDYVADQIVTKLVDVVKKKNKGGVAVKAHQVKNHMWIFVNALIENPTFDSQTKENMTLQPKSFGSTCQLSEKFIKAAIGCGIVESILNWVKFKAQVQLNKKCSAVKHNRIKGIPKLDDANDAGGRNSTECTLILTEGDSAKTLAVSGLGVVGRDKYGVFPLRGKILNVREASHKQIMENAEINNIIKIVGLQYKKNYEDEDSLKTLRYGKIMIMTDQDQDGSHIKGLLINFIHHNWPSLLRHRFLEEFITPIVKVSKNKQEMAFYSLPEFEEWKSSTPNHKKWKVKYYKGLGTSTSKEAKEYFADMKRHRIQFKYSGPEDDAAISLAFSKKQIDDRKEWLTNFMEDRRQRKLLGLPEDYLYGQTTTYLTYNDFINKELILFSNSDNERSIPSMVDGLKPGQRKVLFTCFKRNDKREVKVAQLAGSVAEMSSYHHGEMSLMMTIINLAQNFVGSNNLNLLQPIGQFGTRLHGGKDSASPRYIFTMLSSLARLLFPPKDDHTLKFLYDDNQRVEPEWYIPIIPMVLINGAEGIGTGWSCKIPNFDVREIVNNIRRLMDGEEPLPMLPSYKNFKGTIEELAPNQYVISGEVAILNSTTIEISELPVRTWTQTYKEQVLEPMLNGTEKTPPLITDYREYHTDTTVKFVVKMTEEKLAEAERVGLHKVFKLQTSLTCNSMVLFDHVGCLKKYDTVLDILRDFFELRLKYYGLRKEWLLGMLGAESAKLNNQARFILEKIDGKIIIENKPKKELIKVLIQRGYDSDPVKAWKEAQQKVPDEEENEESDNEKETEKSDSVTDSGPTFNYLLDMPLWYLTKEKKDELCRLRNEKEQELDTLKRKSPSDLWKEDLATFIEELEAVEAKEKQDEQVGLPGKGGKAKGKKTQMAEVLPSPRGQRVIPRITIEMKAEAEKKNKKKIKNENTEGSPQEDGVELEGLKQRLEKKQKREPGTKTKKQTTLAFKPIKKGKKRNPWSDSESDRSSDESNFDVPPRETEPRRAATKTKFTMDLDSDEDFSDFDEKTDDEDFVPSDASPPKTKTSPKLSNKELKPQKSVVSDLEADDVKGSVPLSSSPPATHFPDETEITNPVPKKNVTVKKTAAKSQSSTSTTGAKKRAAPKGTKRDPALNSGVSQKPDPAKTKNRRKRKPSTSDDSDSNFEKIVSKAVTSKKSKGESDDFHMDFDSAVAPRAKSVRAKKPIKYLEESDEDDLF
T2 sequence (Q02880 whole entry): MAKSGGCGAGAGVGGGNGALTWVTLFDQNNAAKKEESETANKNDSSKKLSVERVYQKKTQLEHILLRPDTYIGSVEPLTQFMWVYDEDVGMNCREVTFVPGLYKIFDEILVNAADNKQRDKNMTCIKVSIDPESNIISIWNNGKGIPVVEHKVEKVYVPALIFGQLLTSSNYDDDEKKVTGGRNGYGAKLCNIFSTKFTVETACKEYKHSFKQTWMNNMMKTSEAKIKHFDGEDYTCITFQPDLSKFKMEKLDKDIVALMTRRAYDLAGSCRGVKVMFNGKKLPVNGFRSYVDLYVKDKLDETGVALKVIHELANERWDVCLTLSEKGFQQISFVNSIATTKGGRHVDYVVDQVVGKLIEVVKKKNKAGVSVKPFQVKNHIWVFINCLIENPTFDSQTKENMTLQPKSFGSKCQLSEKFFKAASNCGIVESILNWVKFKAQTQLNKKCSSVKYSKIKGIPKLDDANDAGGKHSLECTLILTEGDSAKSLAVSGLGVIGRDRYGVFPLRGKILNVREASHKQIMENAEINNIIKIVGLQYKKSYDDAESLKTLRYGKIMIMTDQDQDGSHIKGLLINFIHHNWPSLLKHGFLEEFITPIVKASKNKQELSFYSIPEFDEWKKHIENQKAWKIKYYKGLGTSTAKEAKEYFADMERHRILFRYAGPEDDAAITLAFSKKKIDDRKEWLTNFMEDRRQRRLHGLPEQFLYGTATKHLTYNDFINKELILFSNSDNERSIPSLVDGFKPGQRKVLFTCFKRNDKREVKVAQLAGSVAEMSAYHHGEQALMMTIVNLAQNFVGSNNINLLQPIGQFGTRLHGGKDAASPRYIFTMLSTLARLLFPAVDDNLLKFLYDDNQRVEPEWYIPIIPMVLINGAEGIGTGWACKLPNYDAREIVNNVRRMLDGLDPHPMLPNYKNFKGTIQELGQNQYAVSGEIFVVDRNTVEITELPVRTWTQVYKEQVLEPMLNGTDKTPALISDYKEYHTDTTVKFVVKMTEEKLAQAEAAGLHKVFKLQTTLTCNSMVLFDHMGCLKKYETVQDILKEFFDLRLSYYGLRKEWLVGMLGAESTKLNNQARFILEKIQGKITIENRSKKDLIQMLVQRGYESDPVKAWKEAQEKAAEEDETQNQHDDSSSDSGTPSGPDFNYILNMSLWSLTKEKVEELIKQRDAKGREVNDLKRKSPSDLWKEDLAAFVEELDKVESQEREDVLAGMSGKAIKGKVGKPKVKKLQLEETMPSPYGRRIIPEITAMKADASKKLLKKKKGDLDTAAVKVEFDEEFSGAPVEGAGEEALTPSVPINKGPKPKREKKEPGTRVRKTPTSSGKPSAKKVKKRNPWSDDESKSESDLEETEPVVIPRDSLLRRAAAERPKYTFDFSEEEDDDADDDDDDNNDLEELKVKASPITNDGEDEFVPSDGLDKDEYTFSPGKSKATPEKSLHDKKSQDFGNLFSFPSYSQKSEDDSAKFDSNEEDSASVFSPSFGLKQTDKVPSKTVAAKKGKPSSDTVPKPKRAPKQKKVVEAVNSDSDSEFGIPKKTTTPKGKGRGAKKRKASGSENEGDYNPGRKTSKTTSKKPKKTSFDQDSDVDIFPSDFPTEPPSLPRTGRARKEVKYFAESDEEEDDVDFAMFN

Structure (SMILES): Nc1nccs1 [2-aminothiazole]
pKa [1]: 5.4

Structure (SMILES): Cc1cc(O)ccc1Nc1nc(-c2sc(N)nc2C)cs1 [Compound 2]
IC50 [2]: 35.8 µM

Structure (SMILES): Cc1cc(NS(=O)(=O)c2ccc(Nc3nc(-c4sc(N)nc4C)cs3)cc2)no1 [Compound 4]
IC50 [2]: 30.1 µM

Structure (SMILES): Cc1nc(N)sc1-c1csc(Nc2ccc(S(N)(=O)=O)cc2)n1 [Compound 5]
IC50 [2]: 70.1 µM
IC50 [4]: 8.2 µM

Structure (SMILES): Cc1nc(N)sc1-c1csc(Nc2ccc(C(=O)O)c(O)c2)n1 [Compound 6]
reduction of cell viability, initial cytotoxicity screening [5]: no or only minor effects
IC50 [2]: 37.7 µM
reduction of cell viability, initial cytotoxicity screening [6]: no or only minor effects
IC50 [4]: 67 µM

Structure (SMILES): CC(=O)Nc1nc(C)c(-c2csc(Nc3ccc(C(=O)O)cc3)n2)s1 [Compound 8]
reduction of cell viability, initial cytotoxicity screening [5]: no or only minor effects
IC50 [2]: 120 µM
reduction of cell viability, initial cytotoxicity screening [6]: no or only minor effects
IC50 [4]: 5.5 µM

Structure (SMILES): CC(=O)Nc1nc(C)c(-c2csc(Nc3ccc(O)cc3)n2)s1 [Compound 12]
IC50 [2]: 193 µM
IC50 [4]: 30 µM

Structure (SMILES): CCC(=O)Nc1nc(C)c(-c2csc(Nc3ccc(C(=O)O)cc3)n2)s1 [Compound 13]
IC50 [2]: 123 µM
IC50 [4]: 1.1 µM

Structure (SMILES): CC(=O)Nc1nc(C)c(-c2csc(Nc3ccccc3)n2)s1 [Compound 14]
IC50 [2]: 357 µM

Continued, in another order:

IC50 [2]: 222 µM
Structure (SMILES): CC(=O)c1ccc(Nc2nc(-c3sc(N)nc3C)cs2)cc1 [Compound 3]
solubility in the cell growth medium [3]: low solubility

IC50 [2]: 33.7 µM
Structure (SMILES): CC(=O)Nc1nc(C)c(-c2csc(Nc3cccc(O)c3)n2)s1 [Compound 7]

% Linear DNA (first column) ([7]; 3.9 μM): 5.49%
% Linear DNA (second column) ([7]; 3.9 μM): 7.03%
% Linear DNA (first column) ([7]; 31.5 μM): 7.77%
% Linear DNA (second column) ([7]; 31.5 μM): 6.75%
% Linear DNA (first column) ([7]; 125 μM): 4.84%
% Linear DNA (second column) ([7]; 125 μM): 4.60%
% Linear DNA (first column) ([7]; 500 μM): 2.95%
% Linear DNA (second column) ([7]; 500 μM): 2.25%
IC50 [2]: 60 µM
Structure (SMILES): CC(=O)Nc1ccc(Nc2nc(-c3sc(NC(C)=O)nc3C)cs2)cc1 [Compound 9]
linear DNA formation in cleavage assay (in words) [7]: did not reveal a significant amount of linear DNA above the background level

IC50 [2]: 22.7 µM
inhibition at 125 µM ([8]; 125 μM): 26%
inhibition at 500 µM ([8]; 500 μM): 64%
Structure (SMILES): COc1ccc(Nc2nc(-c3sc(NC(C)=O)nc3C)cs2)cc1 [Compound 10]

IC50 [2]: 134 µM
Structure (SMILES): CC(=O)Nc1nc(C)c(-c2csc(Nc3cccc(C(=O)O)c3)n2)s1 [Compound 11]
reduction of cell viability, initial cytotoxicity screening [5]: no or only minor effects
reduction of cell viability, initial cytotoxicity screening [6]: no or only minor effects

% Linear DNA (first column) ([7]; 3.9 μM): 22.76%
% Linear DNA (second column) ([7]; 3.9 μM): 11.88%
% Linear DNA (first column) ([7]; 31.5 μM): 33.00%
% Linear DNA (second column) ([7]; 31.5 μM): 36.26%
% Linear DNA (first column) ([7]; 125 μM): 45.35%
% Linear DNA (second column) ([7]; 125 μM): 36.91%
% Linear DNA (first column) ([7]; 500 μM): 43.03%
% Linear DNA (second column) ([7]; 500 μM): 48.40%
Percentage ATPase activity Run 1 ([9]; 3.9 μM): 52.71%
Percentage ATPase activity Run 2 ([9]; 3.9 μM): 51.94%
Percentage ATPase activity Run 1 ([9]; 31.5 μM): 36.43%
Percentage ATPase activity Run 2 ([9]; 31.5 μM): 37.21%
Percentage ATPase activity Run 1 ([9]; 125 μM): 30.23%
Percentage ATPase activity Run 2 ([9]; 125 μM): 37.21%
Percentage ATPase activity Run 1 [9, 11]: 0%
Percentage ATPase activity Run 2 [9, 11]: 4.65%
% Decatenated Average ([10]; 3.9 μM): 100.0%
% Decatenated Assay 1 ([10]; 500 μM): 15.0%
Structure (SMILES): COc1cc([C@@H]2c3cc4c(cc3[C@@H](O[C@@H]3O[C@@H]5CO[C@@H](C)O[C@H]5[C@H](O)[C@H]3O)[C@H]3COC(=O)[C@H]23)OCO4)cc(OC)c1O [etoposide, reference compound]
linear DNA formation in cleavage assay (in words) [7]: poison activity

Rate ATPase activity ([9]; 10 μM control): 0.14 µmol/min
Structure (SMILES): CO[C@@H]1[C@@H](OC(N)=O)[C@@H](O)[C@H](Oc2ccc3c(O)c(NC(=O)c4ccc(O)c(CC=C(C)C)c4)c(=O)oc3c2C)OC1(C)C [novobiocin, reference compound]
